# Experimental data reported in article PMC12114840, “Exploring the Anticancer Properties of 1,2,3-Triazole-Substituted Andrographolide Derivatives” (Pharmaceuticals, 2025).
# Experiments:
# [1] = tested on: HCT116 cells (colorectal adenocarcinoma); test: Sulforhodamine B (SRB) antiproliferative assay, HCT116; type: cell-based; conditions: Homo sapiens, HCT-116, HCT116, 48 h, mean ± SEM of four to six independent experiments
# Procedure: (§1) The antiproliferative properties of andrographolide and all prepared derivatives (2–26) were evaluated against a panel of different cancer cell lines, including human pancreatic ductal adenocarcinoma (PANC-1), colorectal adenocarcinoma (HCT116), melanoma (A375), breast adenocarcinoma (MCF-7) and a non-tumorigenic colon (CCD-18Co) cell line using the sulforhodamine B assay.
# (§2) Human breast adenocarcinoma MCF-7, pancreatic ductal adenocarcinoma PANC-1, melanoma A375, and non-tumorigenic colon CCD-18Co cell lines were purchased from ATCC (Rockville, MD, USA). Human colorectal adenocarcinoma HCT116 cells were kindly provided by B. Vogelstein (The Johns Hopkins Kimmel Cancer Center, Baltimore, MD, USA). Tumor cells were routinely cultured in RPMI-1640 medium with UltraGlutamine from Biowest (VWR, Carnaxide, Portugal) supplemented with 10% fetal bovine serum (FBS) from Biowest (VWR, Carnaxide, Portugal), except for the PANC-1 cells, which were grown in DMEM (4.5 g/L glucose) with stable L-glutamine and sodium pyruvate and supplemented with 10% FBS. The non-tumorigenic CCD-18Co cells were cultured in EMEM (Lonza, VWR, Carnaxide, Portugal), supplemented with 10% FBS. All cells were incubated at 37 °C in a humidified atmosphere of 5% CO2. Routine mycoplasma testing was performed using the MycoAlert™ PLUS mycoplasma detection kit (Lonza).
# (§3) For the evaluation of the compound effect on cell proliferation, human cell lines were seeded in 96-well plates at a density of 5.0 × 10^3 (HCT116, MCF-7, PANC-1, A375, and CCD-18Co) cells per well, for 24 h. Cells were then treated with serial dilutions of the compound (ranging from 0.63 to 30 µM), for an additional 48 h incubation period. The growth inhibitory effects were assessed by SRB assay, as described in [58], and the half-maximal inhibitory concentration (IC50 values) were determined for each cell line using the GraphPad Prism software version 7.0 (La Jolla, CA, USA). Culture medium containing a maximum of 0.05% dimethyl sulfoxide (DMSO) was used as negative control.
# [2] = tested on: CCD-18Co cells (non-tumorigenic colon); test: Sulforhodamine B (SRB) antiproliferative assay, CCD-18Co; type: cell-based; conditions: Homo sapiens, CCD-18Co non-tumorigenic, 48 h, mean ± SEM of four to six independent experiments
# Procedure: as §1, §2, §3
# [3] = tested on: PANC-1 cells (pancreatic ductal adenocarcinoma); test: Sulforhodamine B (SRB) antiproliferative assay, PANC-1; type: cell-based, human; conditions: Homo sapiens; PANC-1, 48 h, SRB; mean ± SEM of four to six independent experiments
# Procedure: as §1, §2, §3
# A375 cells (melanoma) = test: Sulforhodamine B (SRB) antiproliferative assay, A375; type: cell-based; conditions: Homo sapiens, A-375, A375, 48 h, mean ± SEM of four to six independent experiments
# Procedure: as §1, §2, §3
# [4] = tested on: MCF-7 cells (breast adenocarcinoma); test: Sulforhodamine B (SRB) antiproliferative assay, MCF-7; type: cell-based; conditions: Homo sapiens, MCF7, MCF-7, 48 h, mean ± SEM of four to six independent experiments
# Procedure: as §1, §2, §3
structure (smiles),measurement,setting,value
"C=C1CC[C@@H]2[C@](C)(COC(C)=O)[C@H](OC(C)=O)CC[C@@]2(C)[C@@H]1C[C@@H](C1=CCOC1=O)n1cc(-c2ccccc2)nn1 [Compound 11, (12S)-4-phenyl-1,2,3-triazole-3,19-diacetoxy-14-deoxy-andrographolide]",IC50,[1],1.9 ± 0.3 µM
same,IC50,[2],3.3 ± 0.4 µM
same,IC50,[3],3.4 ± 0.6 µM
same,IC50,A375 cells (melanoma),8.2 ± 0.1 µM
same,IC50,[4],4.2 ± 0.8 µM
"C=C1CC[C@@H]2[C@](C)(COC(C)=O)[C@H](OC(C)=O)CC[C@@]2(C)[C@@H]1C[C@H](C1=CCOC1=O)n1cc(-c2ccc(N)cc2)nn1 [Compound 13, (12R)-4-aniline-1,2,3-triazole-3,19-diacetoxy-14-deoxy-andrographolide]",IC50,[1],4.8 ± 1.3 µM
same,IC50,[2],30 ± 2 µM
same,IC50,[3],6.5 ± 0.4 µM
same,IC50,A375 cells (melanoma),6.8 ± 0.9 µM
same,IC50,[4],26 ± 3 µM
"C=C1CC[C@@H]2[C@](C)(COC(C)=O)[C@H](OC(C)=O)CC[C@@]2(C)[C@@H]1C[C@H](C1=CCOC1=O)n1cc(-c2ccc(C#N)cc2)nn1 [Compound 14, (12R)-4-benzonitrile-1,2,3-triazole-3,19-diacetoxy-14-deoxy-andrographolide]",IC50,[1],2 ± 0.6 µM
same,IC50,[2],3.7 ± 0.9 µM
same,IC50,[3],2.5 ± 0.3 µM
same,IC50,A375 cells (melanoma),1.7 ± 0.2 µM
same,IC50,[4],7.9 ± 0.6 µM
"C=C1CC[C@@H]2[C@](C)(COC(C)=O)[C@H](OC(C)=O)CC[C@@]2(C)[C@@H]1C[C@@H](C1=CCOC1=O)n1cc(-c2ccc(C#N)cc2)nn1 [Compound 15, (12S)-4-benzonitrile-1,2,3-triazole-3,19-diacetoxy-14-deoxy-andrographolide]",IC50,[1],1.3 ± 0.1 µM
same,IC50,[2],6.2 ± 1.2 µM
same,IC50,[3],3.3 ± 0.9 µM
same,IC50,A375 cells (melanoma),1.2 ± 0.2 µM
same,IC50,[4],5.6 ± 0.2 µM
"C=C1CC[C@@H]2[C@](C)(COC(C)=O)[C@H](OC(C)=O)CC[C@@]2(C)[C@@H]1C[C@H](C1=CCOC1=O)n1cc(-c2ccc(OC)cc2)nn1 [Compound 16, (12R)-4-(4-methoxyphenyl)-1,2,3-triazole-3,19-diacetoxy-14-deoxy-andrographolide]",IC50,[1],2.3 ± 0.9 µM
same,IC50,[2],6.8 ± 1 µM
same,IC50,[3],2.3 ± 0.2 µM
same,IC50,A375 cells (melanoma),1.5 ± 0.2 µM
same,IC50,[4],9.3 ± 0.1 µM
"C=C1CC[C@@H]2[C@](C)(COC(C)=O)[C@H](OC(C)=O)CC[C@@]2(C)[C@@H]1C[C@@H](C1=CCOC1=O)n1cc(-c2ccc(OC)cc2)nn1 [Compound 17, (12S)-4-(4-methoxyphenyl)-1,2,3-triazole-3,19-diacetoxy-14-deoxy-andrographolide]",IC50,[1],1.7 ± 0.5 µM
same,IC50,[2],4.4 ± 0.9 µM
same,IC50,[3],2.1 ± 0.1 µM
same,IC50,A375 cells (melanoma),0.9 ± 0.1 µM
same,IC50,[4],5.6 ± 0.2 µM
C=C1CC[C@@H]2[C@](C)(COC(C)=O)[C@H](OC(C)=O)CC[C@@]2(C)[C@@H]1C[C@H](C1=CCOC1=O)n1cc(-c2ccc(OC(F)(F)F)cc2)nn1 [Compound 18],IC50,[1],3.7 ± 0.5 µM
same,IC50,[2],5.1 ± 0.1 µM
same,IC50,[3],3.5 ± 1.6 µM
same,IC50,A375 cells (melanoma),6.6 ± 0.8 µM
same,IC50,[4],9.5 ± 0.5 µM
C=C1CC[C@@H]2[C@](C)(COC(C)=O)[C@H](OC(C)=O)CC[C@@]2(C)[C@@H]1C[C@@H](C1=CCOC1=O)n1cc(-c2ccc(OC(F)(F)F)cc2)nn1 [Compound 19],IC50,[1],4.1 ± 0.2 µM
same,IC50,[2],6.6 ± 0.9 µM
same,IC50,[3],3.1 ± 0.8 µM
same,IC50,A375 cells (melanoma),7.1 ± 0.1 µM
same,IC50,[4],7.9 ± 1.5 µM
C=C1CC[C@@H]2[C@](C)(COC(C)=O)[C@H](OC(C)=O)CC[C@@]2(C)[C@@H]1C[C@H](C1=CCOC1=O)n1cc(-c2ccc(-c3ccccc3)cc2)nn1 [Compound 20],IC50,[1],1.4 ± 0.3 µM
same,IC50,[2],3.5 ± 0.3 µM
same,IC50,[3],3 ± 1.1 µM
same,IC50,A375 cells (melanoma),3.3 ± 1.3 µM
same,IC50,[4],28 ± 2 µM
C=C1CC[C@@H]2[C@](C)(COC(C)=O)[C@H](OC(C)=O)CC[C@@]2(C)[C@@H]1C[C@@H](C1=CCOC1=O)n1cc(-c2ccc(-c3ccccc3)cc2)nn1 [Compound 21],IC50,[1],1.2 ± 0.2 µM
same,IC50,[2],4.4 ± 0.8 µM
same,IC50,[3],3.5 ± 0.3 µM
same,IC50,A375 cells (melanoma),1.3 ± 0.3 µM
same,IC50,[4],10.4 ± 0.7 µM
"C=C1CC[C@@H]2[C@](C)(COC(C)=O)[C@H](OC(C)=O)CC[C@@]2(C)[C@@H]1C[C@H](C1=CCOC1=O)n1cc(-c2ccncc2)nn1 [Compound 22, (12R)-4-(4-pyridine)-1,2,3-triazole-3,19-diacetoxy-14-deoxy-andrographolide]",IC50,[1],1.6 ± 0.3 µM
same,IC50,[2],3.2 ± 0.9 µM
same,IC50,[3],5 ± 0.4 µM
same,IC50,A375 cells (melanoma),1.3 ± 0.2 µM
same,IC50,[4],5.9 ± 0.1 µM
"C=C1CC[C@@H]2[C@](C)(COC(C)=O)[C@H](OC(C)=O)CC[C@@]2(C)[C@@H]1C[C@@H](C1=CCOC1=O)n1cc(-c2ccncc2)nn1 [Compound 23, (12S)-4-(4-pyridine)-1,2,3-triazole-3,19-diacetoxy-14-deoxy-andrographolide]",IC50,[1],2.8 ± 0.8 µM
same,IC50,[2],4.1 ± 0.9 µM
same,IC50,[3],6.3 ± 1.9 µM
same,IC50,A375 cells (melanoma),3.3 ± 1 µM
same,IC50,[4],11 ± 0.2 µM
"C=C1CC[C@@H]2[C@](C)(COC(C)=O)[C@H](OC(C)=O)CC[C@@]2(C)[C@@H]1C[C@H](C1=CCOC1=O)n1cc(-c2ccccn2)nn1 [Compound 24, (12R)-4-pyridine-1,2,3-triazole-3,19-diacetoxy-14-deoxy-andrographolide]",IC50,[1],6.7 ± 3.2 µM
same,IC50,[2],4.6 ± 1.4 µM
same,IC50,[3],1.8 ± 0.1 µM
same,IC50,A375 cells (melanoma),1.3 ± 0.3 µM
same,IC50,[4],7 ± 0.2 µM
"C=C1CC[C@@H]2[C@](C)(COC(C)=O)[C@H](OC(C)=O)CC[C@@]2(C)[C@@H]1C[C@H](C1=CCOC1=O)n1cc(-c2ccsc2)nn1 [Compound 25, (12R)-4-(3-thiophene)-1,2,3-triazole-3,19-diacetoxy-14-deoxy-andrographolide]",IC50,[1],1.7 ± 0.3 µM
same,IC50,[2],8.9 ± 0.2 µM
same,IC50,[3],4.5 ± 2 µM
same,IC50,A375 cells (melanoma),1.8 ± 0.3 µM
same,IC50,[4],6.9 ± 0.1 µM
"C=C1CC[C@@H]2[C@](C)(COC(C)=O)[C@H](OC(C)=O)CC[C@@]2(C)[C@@H]1C[C@@H](C1=CCOC1=O)n1cc(-c2ccsc2)nn1 [Compound 26, (12S)-4-(3-thiophene)-1,2,3-triazole-3,19-diacetoxy-14-deoxy-andrographolide]",IC50,[1],1.3 ± 0.1 µM
same,IC50,[2],6.2 ± 1.4 µM
same,IC50,[3],4.3 ± 1.4 µM
same,IC50,A375 cells (melanoma),1.4 ± 0.1 µM
same,IC50,[4],6.1 ± 0.2 µM
"COc1cc([C@@H]2c3cc4c(cc3[C@@H](O[C@@H]3O[C@@H]5CO[C@@H](C)O[C@H]5[C@H](O)[C@H]3O)[C@H]3COC(=O)[C@H]23)OCO4)cc(OC)c1O [Etoposide, reference compound]",IC50,[1],0.65 ± 0.09 µM
same,IC50,[2],0.76 ± 0.01 µM
same,IC50,[3],2.8 ± 0.05 µM
same,IC50,A375 cells (melanoma),0.82 ± 0.07 µM
same,IC50,[4],1.8 ± 0.03 µM
